{"source": "paper PMC12373846", "about": "“Hemoglobin as a pseudoperoxidase and drug target for oxidative stress-related diseases” (Signal Transduction and Targeted Therapy, 2025)", "key": {"[1]": {"test_system": "primary cultured hippocampal astrocytes", "test": "oROS-G intracellular H2O2 imaging", "type": "cell-based, mouse", "details": "for oROS-G intensity: Fig. 6e", "method": "Primary hippocampal astrocytes were obtained from postnatal day 0‒2 (P0‒2) C57BL/6 mice as previously described.[73] The hippocampal tissue was dissected free of meninges, minced, and dissociated into a single-cell suspension by trituration. The cells were grown in Dulbecco’s modified Eagle’s medium supplemented with D-glucose (4500 mg/L), L-glutamine, sodium pyruvate (110 mg/L), 10% heat-inactivated horse serum, 10% heat-inactivated fetal bovine serum, and 1000 U/ml penicillin‒streptomycin. The cells were maintained at 37 °C in a humidified atmosphere containing 5% CO2.\nH2O2 specific, highly sensitive, and fast on-and-off kinetics, a genetically encoded oROS-G plasmid kindly provided by Dr. Andre Berndt. oROS-G was cloned under the GFAP104 promoter and delivered into primary cultured hippocampal astrocytes via the NeoN^TM transfection system (Invitrogen). The cells were treated with various concentrations of Aβ (1 to 10 μM) or 6-OHDA (Tocris, 2547; 10 to 50 μM) to induce aberrant H2O2. For subsequent experiments, 5 μM Aβ and 30 μM 6-OHDA were selected on the basis of initial dose‒response studies. KDS12025 (10 μM) and sodium pyruvate (1 mM) were applied as indicated in each experiment. For live-cell imaging, astrocytes were maintained in a humidified chamber at 37 °C with 5% […] during imaging to preserve physiological conditions. Changes in the fluorescence of oROS-G were recorded via an A1 Nikon confocal microscope equipped with a temperature- and humidity-controlled stage. Images were captured every 20 min for up to 40 h (20for the 6-OHDA experiments) via the NIS-Elements software (Nikon, Japan) for time-lapse imaging. The excitation and emission wavelengths for oROS-G fluorescence were set to 485 nm and 538 nm, respectively. Endpoint fluorescence measurements were also collected for KDS12025 dose-dependent experiments. To analyze the fluorescence intensity, individual regions of interest (ROIs) were manually selected for each astrocyte via NIS-Elements software (Nikon, Japan). The fluorescence intensity changes were normalized to the baseline values (ΔF/F0) to quantify the H2O2 dynamics. To determine the EC50 of KDS12025, endpoint fluorescence intensity data from oROS-G experiments were normalized to those of the Aβ+vehicle control group. The normalized data were analyzed via GraphPad Prism software to fit a four-parameter logistic curve, yielding the EC50 value for the H2O2-decomposing activity of KDS12025."}, "aged C57BL/6J mice": {"test_system": "aged C57BL/6J mice", "test": "Immunohistochemistry, aging mice", "type": "in vivo, mouse", "details": "30 month, 1 mg/kg/day", "method": "Aged 1-year-old C57BL/6J animals were purchased from Janvier Labs (France) and quarantined in the IBS Animal Facility for 2 weeks before the experiment. The animals were weighed, and their water consumption (in grams) was monitored for 3 days before the appropriate drug concentration was calculated for each dose group. The animals were randomly assigned to the drug/control and dose groups. […] The drug concentration (in water) was modified on the basis of changes in animal weight and corresponding water consumption every 3 months. Basal body temperature and body weight were monitored every 2 weeks. The care and handling of the animals were performed in accordance with the guidelines of the Institutional Animal Care and Use Committee of IBS (Daejeon, South Korea).\nThe mice were deeply anesthetized with 2% isoflurane and positioned on the operating table. After the abdomen was opened and the heart was exposed, the […] were perfused with saline, followed by 4% paraformaldehyde (PFA) in 0.1 M PBS. The mice were decapitated, and the brains were excised from the skull. Excised brains were postfixed in 4% PFA overnight at 4 °C and dehydrated in 30% sucrose for 48 h. Coronal hippocampal sections were cut at 30 µm thickness with a cryostat and stored in storage solution. For the ALS experiments, lumbar spinal cords (L2–L5) were also carefully dissected and immediately immersed in 4% PFA for postfixation. The sections were fully washed in 0.1 M PBS and incubated for 1 h in blocking solution (0.3% Triton X-100, 2% donkey and goat serum in 0.1 M PBS). Next, a mixture of primary antibodies in the blocking solution was used for immunostaining on a shaker overnight at 4 °C. The sections were washed in PBS three times. After washing, the sections were incubated with the corresponding fluorescent secondary antibodies for 1 h at RT. DAPI staining was performed by adding a DAPI solution (1:2000) during the second washing step. After the washing step was complete, the sections were mounted on cover slides with mounting medium. A series of fluorescence images were obtained with an LSM900 (Zeiss, Germany) confocal microscope or Lattice SIM Elyra 7 (Zeiss, Germany). The 15–22 μm Z stack images in 1–2 μm steps were processed for image analysis, which was performed via the ImageJ (NIH, US) and ZEN digital imaging for light microscopy blue system (Zeiss, Germany) programs. The primary antibodies used were as follows: chicken anti-GFAP (1:500, Millipore, ab5541), rabbit anti-amyloid beta (1:500, Abcam, ab2539), mouse anti-NeuN (1:200, Millipore, ab377), rabbit anti-Hbβ (1:200, Abcam, ab214049), mouse anti-Hbβ (1:200, Santacruz, sc-21757), mouse anti-MAOB (1:200, Santacruz, sc-515354), mouse anti-8-OhdG (1:500, Santacruz, sc-393871), rabbit anti-TH (1:500, Pelfreez, p40101), and mouse anti-TH (1:200, Sigma, T2928). The following secondary antibodies from Jackson were diluted (1:500) in blocking solution: donkey-anti-chicken 405, donkey-anti-chicken 647, donkey-anti-rabbit 488, donkey-anti-rabbit 594, donkey-anti-rabbit 647, donkey-anti-guinea pig 488, donkey-anti-guinea pig 647, donkey-anti-mouse 594, and donkey-anti-mouse 647. Serial confocal sections immunolabeled with GFAP were compiled into a maximal projection to assess the GFAP signal within the hippocampus (Z-stacked images, 15–22 μm Z stack images in 1–2 μm steps of brain sections). Sholl analysis, performed via the ImageJ plugin, automatically generated concentric circles with 10-μm spacing from the nucleus (soma) to the farthest astrocytic process. This analysis quantified the intersections of GFAP-labeled processes within each circle, calculating the ramification index and ending radius, enabling the evaluation of astrocytic hypertrophy and morphological changes, as previously described.[78] In the focal GiD mouse model, NeuN-positive CA1 pyramidal neurons were quantified within a 50 × 50 μm^2 region via ImageJ to determine the number of CA1 pyramidal neurons."}}}
{"smiles": "CNc1ccc(NCCc2ccccc2OC)cc1.Cl", "note": "[KDS12025, N^1-(2-methoxyphenethyl)-N^4-methylbenzene-1,4-diamine hydrochloride salt]", "values": [{"measurement": "oROS-G H2O2 level", "setting": "[1]; 6-OHDA 30 μM + KDS12025, Fig. 3k", "value": "123.4±9.7"}, {"measurement": "oROS-G H2O2 level, 40-h imaging", "setting": "[1]; Aβ 5 μM + KDS12025 10 μM, Fig. 3h", "value": "111.8±4.968"}, {"measurement": "oROS-G intensity", "setting": "[1]; Hbβ-shRNA, Aβ 5 μM + 0.1μM", "value": 199.3}, {"measurement": "oROS-G intensity", "setting": "[1]; Hbβ-shRNA, Aβ 5 μM + 1μM", "value": 204.7}, {"measurement": "oROS-G intensity", "setting": "[1]; Hbβ-shRNA, Aβ 5 μM + 10μM", "value": 182.4}, {"measurement": "EC50", "setting": "[1]; Mus musculus, Astrocyte, Aβ 5 µM-treated astrocytes, oROS-G endpoint, read-out: EC50, reduction of Aβ-induced H2O2", "value": 500, "unit": "nM"}, {"measurement": "oROS-G intensity", "setting": "[1]; Sc-shRNA, Aβ 5 μM + 0.1μM", "value": "100.5±13.5"}, {"measurement": "oROS-G intensity", "setting": "[1]; Sc-shRNA, Aβ 5 μM + 1μM", "value": "112.3±24.1"}, {"measurement": "oROS-G intensity", "setting": "[1]; Sc-shRNA, Aβ 5 μM + 10μM", "value": "83.4±13.5"}, {"measurement": "oROS-G H2O2 level, 40-h imaging", "setting": "[1]; putrescine 180 μM + KDS12025 10 μM, Fig. 3i", "value": "96.12±6.634"}, {"measurement": "Sholl analysis, sum of intersections (stats entry 7h)", "setting": "aged C57BL/6J mice", "value": "18 month (84.3±5.19, n=8), 30 month (44.4±5.44, n=9), 30 month+KDS (63.6±5.78, n=14) One-way ANOVA with Tukey's multiple comparisons test, F(2,28) = 9.65, p < 0.001 18 month vs. 30 month, p < 0.001; 18 month vs. 30 month+KDS, p = 0.05; 30 month vs. 30 month+KDS, p = 0.06"}, {"measurement": "NeuN-positive neurons in CA1 (NeuN intensity × neuron number)", "setting": "aged C57BL/6J mice; Fig. 7f", "value": "18 month (1694642±125526, n=6), 30 month (1149296±45876, n=4), 30 month+KDS (1820376±163596, n=6) One-way ANOVA with Tukey's multiple comparisons test, F(2,13) = 5.78, p = 0.02 18 month vs. 30 month, p = 0.05; 18 month vs. 30 month+KDS, p = 0.77; 30 month vs. 30 month+KDS, p = 0.02"}, {"measurement": "GFAP-positive area", "setting": "aged C57BL/6J mice; Fig. 7g", "value": "18 month (272.5±20.8, n=44), 30 month (167.6±12, n=60), 30 month+KDS (212.0±12.4, n=76) One-way ANOVA with Tukey's multiple comparisons test, F(2,177) = 11.24, p < 0.001 18 month vs. 30 month, p < 0.001; 18 month vs. 30 month+KDS, p = 0.01; 30 month vs. 30 month+KDS, p = 0.06"}, {"measurement": "astrocytic Hbβ expression in the hippocampus", "setting": "aged C57BL/6J mice; Fig. 7l", "value": "18 month (56.4±1.04, n=48), 30 month (49.5±1.7, n=40), 30 month+KDS (62.8±1.32, n=32) One-way ANOVA with Tukey's multiple comparisons test, F(2,117) = 21.5, p < 0.001 18 month vs. 30 month, p < 0.001; 18 month vs. 30 month+KDS, p = 0.004; 30 month vs. 30 month+KDS, p < 0.001"}, {"measurement": "MAOB intensity in GFAP-positive areas", "setting": "aged C57BL/6J mice; Fig. S19b", "value": "18 month (40.7±0.7, n=95), 30 month (71.5±1.04, n=66), 30 month+KDS (51.1±0.8, n=83) One-way ANOVA with Tukey's multiple comparisons test, F(2,241) = 354.7, p < 0.001 18 month vs. 30 month, p < 0.001; 18 month vs. 30 month+KDS, p < 0.001; 30 month vs. 30 month+KDS, p < 0.001"}, {"measurement": "GABA intensity in GFAP-positive areas", "setting": "aged C57BL/6J mice; Fig. S19c", "value": "18 month (50.7±0.7, n=95), 30 month (67.03±1.7, n=66), 30 month+KDS (69.2±1.3, n=83) One-way ANOVA with Tukey's multiple comparisons test, F(2,198) = 84.9, p < 0.001 18 month vs. 30 month, p < 0.001; 18 month vs. 30 month+KDS, p < 0.001; 30 month vs. 30 month+KDS, p = 0.47"}, {"measurement": "TH-positive neurons in the SNpc", "setting": "aged C57BL/6J mice; Fig. S19d", "value": "Unaired t-test, two tailed 30 month (23.75±5.12, n=4), 30 month+KDS (40.2±2.67, n=5), p = 0.02 t = 3.03, df = 7"}]}
